Laboratory results from patent US8536342B2, “Process for producing thiabenzoazulene-propionic acid derivative” (Nippon Zoki Pharmaceutical Co., Ltd., priority 2009, dated 2013).

What was measured:
intracerebral receptor = target: T1, intracerebral receptor (Mus musculus, UniProt P70174); assay: intracerebral receptor binding test by oral administration to mice; format: in vivo
T1 construct: from tissue; host or cells: mouse brain

histamine H1 receptor = histamine H1 receptor (Homo sapiens, UniProt P35367); assay: antagonistic action to histamine H1 receptor
histamine H1 receptor, sequence (P35367 whole entry, species assumed): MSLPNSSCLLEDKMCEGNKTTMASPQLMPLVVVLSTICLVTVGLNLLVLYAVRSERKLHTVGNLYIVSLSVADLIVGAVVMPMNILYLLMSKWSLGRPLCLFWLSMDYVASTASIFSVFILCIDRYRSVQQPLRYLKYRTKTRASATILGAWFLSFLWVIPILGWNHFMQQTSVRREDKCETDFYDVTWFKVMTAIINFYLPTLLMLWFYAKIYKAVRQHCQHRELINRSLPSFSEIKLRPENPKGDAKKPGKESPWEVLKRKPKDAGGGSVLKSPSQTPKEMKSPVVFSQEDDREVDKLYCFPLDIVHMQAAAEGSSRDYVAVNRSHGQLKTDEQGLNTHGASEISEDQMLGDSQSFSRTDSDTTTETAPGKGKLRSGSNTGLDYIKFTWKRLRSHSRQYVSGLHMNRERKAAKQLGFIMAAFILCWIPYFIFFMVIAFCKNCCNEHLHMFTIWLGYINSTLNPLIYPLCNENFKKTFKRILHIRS

T1 sequence (P70174 whole entry): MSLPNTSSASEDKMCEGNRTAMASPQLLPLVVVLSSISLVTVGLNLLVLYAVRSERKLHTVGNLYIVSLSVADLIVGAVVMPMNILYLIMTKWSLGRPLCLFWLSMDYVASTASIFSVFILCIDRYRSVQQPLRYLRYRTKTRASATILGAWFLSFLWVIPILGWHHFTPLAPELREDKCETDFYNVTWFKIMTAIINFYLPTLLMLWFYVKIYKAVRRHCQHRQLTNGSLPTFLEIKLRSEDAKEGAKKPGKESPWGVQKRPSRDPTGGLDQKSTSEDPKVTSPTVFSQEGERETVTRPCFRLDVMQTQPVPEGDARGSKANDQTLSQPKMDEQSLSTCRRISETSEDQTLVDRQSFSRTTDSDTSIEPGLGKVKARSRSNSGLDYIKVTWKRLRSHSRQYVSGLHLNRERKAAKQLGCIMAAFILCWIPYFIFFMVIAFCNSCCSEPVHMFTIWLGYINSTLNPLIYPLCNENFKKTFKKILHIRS

SMILES	melting point	also measured
CCOC(=O)N1CCC(=C2c3ccccc3CCc3sccc32)CC1 [Compound 1, ethyl 4-(9,10-dihydro-1-thiabenzo[f]-azulen-4-ylidene)piperidine-1-carboxylate]	110 to 113 °C	
CN1CCC(=C2c3ccccc3CCc3sc(Br)cc32)CC1 [Compound 11, 4-(2-bromo-9,10-dihydro-1-thiabenzo[f]-azulen-4-ylidene)-1-methylpiperidine]	141 to 142 °C	
CCOC(=O)N1CCC(=C2c3ccccc3CCc3sc(C=CC(=O)O)cc32)CC1 [Compound 3, 3-[4-(1-ethoxycarbonylpiperidin-4-ylidene)-9,10-dihydro-4H-1-thiabenzo[f]azulen-2-yl]acrylic acid]	228 °C (dec.)	
CC(C)(C)OC(=O)N1CCC(=C2c3ccccc3C=Cc3sc(CCC(=O)O)cc32)CC1 [Compound 7, 3-[4-(1-tert-butoxycarbonylpiperidin-4-ylidene)-4H-1-thiabenzo[f]azulen-2-yl]propionic acid]	172 °C (dec.)	
CCOC(=O)C=Cc1cc2c(s1)CCc1ccccc1C2=C1CCN(C(=O)OCC)CC1 [Compound 8, ethyl 4-[2-(2-ethoxycarbonylvinyl)-9,10-dihydro-1-thiabenzo[f]azulen-4-ylidene]piperidine-1-carboxylate]	90 to 93 °C	
CCOC(=O)N1CCC(=C2c3ccccc3CCc3sc(C=O)cc32)CC1 [Compound 2, ethyl 4-(2-formyl-9,10-dihydro-1-thia-benzo[f]azulen-4-ylidene)piperidine-1-carboxylate]	146 to 149 °C	
O=C(O)C=Cc1cc2c(s1)CCc1ccccc1C2=C1CCNCC1 [Compound 4, 3-(4-piperidin-4-ylidene-9,10-dihydro-4H-1-thiabenzo[f]azulen-2-yl)acrylic acid]	269 to 272 °C (dec.)	
CC(C)(C)OC(=O)N1CCC(=C2c3ccccc3CCc3sc(C=CC(=O)O)cc32)CC1 [Compound 6, 3-[4-(1-tert-butoxycarbonylpiperidin-4-ylidene)-9,10-dihydro-4H-1-thiabenzo[f]azulen-2-yl]acrylic acid]	186 °C (dec.)	
O=C(O)CCc1cc2c(s1)C=Cc1ccccc1C2=C1CCNCC1 [Compound 5, 3-(4-piperidin-4-ylidene-4H-1-thiabenzo-[f]azulen-2-yl)propionic acid]	254 °C (dec.)	intracerebral transmigration (intracerebral receptor): low intracerebral transmigration; antagonistic action to histamine H1 receptor (histamine H1 receptor): excellent antagonistic action; antihistaminic action (histamine H1 receptor): excellent antihistaminic action
